What all share (type): cell-based, Staphylococcus aureus
The test system of assay [1] is S. aureus Newman. Nature of the assay: Adhesion of S. aureus Newman to GST-L2v loricrin. Conditions: for concentration giving full inhibition of adhesion to L2v loricrin: S. aureus Newman, GST-L2v. How it is done:
FIG 4 Allantodapsone inhibits S. aureus adhesion to loricrin and cytokeratin 10. Dose-response curve for adhesion of S. aureus Newman to GST-L2v loricrin (A) and CK10 (C). (B) Inhibition of recombinant ClfB N2N3 binding to immobilized GST-L2v loricrin by allantodapsone. (D) Inhibition of S. aureus Newman adhesion to GST-L2v loricrin by allantodapsone derivatives. Purified GST-L2v or CK10 were used to coat plates at 4°C overnight. Wells were washed with PBS and blocked with 1% BSA. Washed bacteria (OD600 of 1) were mixed with allantodapsone or vehicle control before being added to the wells and incubated for 2 h at 37°C. Adherent cells were washed, fixed, and stained with crystal violet, and wells further washed. The dye was dissolved in acetic acid, and the absorbance measured at 570 nm. GST-L2v was used at 20 μM in A and D. CK10 was used at 10 nM. Test compounds were incubated with bacteria at 80 μM and normalized to the DMSO vehicle control in D. For data presented in B, recombinant ClfB was incubated with allantodapsone (100 μM) or DMSO (1%) for 30 min prior to being added to wells coated with recombinant GST-L2v loricrin. Bound ClfB was detected using peroxidase-conjugated anti-His monoclonal antibody in an ELISA. The graphs shown are representative of three independent experiments. Statistics were carried out using one-way ANOVA followed by the Dunnett’s posttest using GraphPad Prism version 9.0.
(§1) Adhesion assays were carried out according to Hartford et al. ([37]). Briefly, plates were coated with 10 μg/mL fibrinogen (Calbiochem, Darmstadt, Germany) or 20 μg/mL fibronectin (Sigma-Aldrich, Ireland) for 2 h at 37°C or for 16 h at 4°C. Plates were blocked with 1% BSA at 37°C for 1 h and washed 3 times in PBS. Washed bacteria were incubated at 37°C for 2 h. Adherent bacteria were washed three times in PBS and fixed in 5–9% formaldehyde at room temperature for 30 min. Wells were washed three times in PBS and stained using 5% crystal violet for 20 min. Wells were washed three times in PBS, and the crystal violet solubilized using 5% acetic acid. Plates were read at 570 nm on a Wallac Victor2, (Shelton, CT, USA). The minimum adhesion inhibitory concentration (MAIC) was determined as the concentration inhibiting greater than 90% bacterial adhesion.

The test system of assay [2] is S. aureus SH1000. In words: Adhesion of S. aureus SH1000 to fibronectin. Conditions: fibronectin 20 μg/mL, Fig. S2. As to the method:
as §1, with “adhesion. […]” for “adhesion.”
fibronectin. Fibronectin was used to coat plates at 4 °C overnight at 20 μg/mL.
Wells were washed with PBS and blocked with 1% BSA. Washed bacteria (OD600 of 1) were added with the relevant concentration of allantodapsone or vehicle control, and incubated for 2 hours at 37 °C. Adherent cells were washed, fixed, stained with crystal violet and wells further washed. The dye was dissolved in acetic acid and the absorbance measured at 570 nm. […]

The test system of assay [3] is S. aureus Newman. In words: Adhesion of S. aureus Newman to immobilized fibrinogen (crystal violet). How it is done: FIG 1 Allantodapsone inhibits S. aureus Newman adhesion to fibrinogen. Dose response curves for S. aureus Newman (A), L. lactis ClfA (B), and L. lactis ClfB (C) adhesion to fibrinogen. Fibrinogen was used to coat plates at 4°C overnight at 10 μg/mL. Wells were washed with PBS and blocked with 1% BSA. Washed bacteria (OD600 of 1) were mixed with the relevant concentration of allantodapsone or vehicle control (DMSO) for 5 min, and added to the wells, incubating for 2 h at 37°C. Adherent cells were washed, fixed, and stained with crystal violet, and wells further washed. The dye was dissolved in acetic acid and the absorbance measured at 570 nm. IC50 values were generated using GraphPad Prism 9.0 GraphPad software, San Diego, CA. Data are representative of three experiments with error presented as SEM.
FIG 2 Allantodapsone inhibits S. aureus adhesion to fibrinogen. (A) S. aureus Newman stationary phase and (B) exponential phase. (C) S. aureus SH1000 stationary phase and (D) exponential phase bacteria. Fibrinogen was used to coat plates at 4°C overnight at 10 μg/mL. Wells were washed with PBS and blocked with 1% BSA. Washed bacteria (OD600 of 1) were mixed with the relevant concentration of allantodapsone or vehicle control for 5 min, and added to the wells, incubating for 2 h at 37°C. Adherent cells were washed, fixed, and stained with crystal violet, and wells further washed. The dye was dissolved in acetic acid and the absorbance measured at 570 nm. Compounds were screened at a concentration of 70 μM and compared to their vehicle control. Statistical analysis was carried out using repeated measures ANOVA followed by multiple comparisons Dunnett’s tests using GraphPad PRISM. **, P ≤ 0.01; ***, P ≤ 0.001; ****, P ≤ 0.0001 (n = 3).
as §1
Compounds were added to the bacterial suspension prior to addition to the wells. In each experiment, vehicle controls were prepared using the same volume of vehicle for the matching test compound.

Each structure is given as a SMILES string. Where “and” joins values, the source holds several entries; their conditions need not be identical. Identical values can stand only once.

By IC50 is commonly meant the concentration that inhibits the measured activity by half. As to `Nc1ccc(S(=O)(=O)c2ccc(NCN3C(=O)NC(=O)C(=O)C3=O)cc2)cc1` [Allantodapsone], the “concentration giving full inhibition of adhesion to L2v loricrin” value was determined as 40 µM in assay [1] and 16.1 µg/mL in assay [1] (listed as allantodapsone). The IC50 is 9.87 µM in assay [1] (Staphylococcus aureus, NEWMAN, read-out: IC50, inhibition of adhesion to L2v loricrin); 32.8 µM in assay [3] (Staphylococcus aureus, NEWMAN, read-out: IC50, inhibition of adhesion to fibrinogen, S. aureus Newman exponential phase); 23 µM in assay [3] (Staphylococcus aureus, NEWMAN, read-out: IC50, inhibition of adhesion to fibrinogen, S. aureus Newman stationary phase, fibrinogen 10 μg/mL); 21.3 µM in assay [3] (read-out: IC50, inhibition of adhesion to fibrinogen, S. aureus Newman stationary phase, fibrinogen 10 μg/mL). Further, the “inhibition of adhesion to fibronectin (words)” value in assay [2] was “does not inhibit”; in assay [2] (listed as allantodapsone), “did not inhibit”. In addition, in assay [3] (S. aureus Newman stationary phase, concentration inhibiting greater than 90% adhesion to fibrinogen), the “minimum adhesion inhibitory concentration (MAIC)” value is 100 μM and 40.2 μg/mL. In addition, the “inhibition of adhesion to fibrinogen” value in assay [3] (S. aureus Newman, stationary and exponential phase, compounds screened at 70 μM (Fig. 2)) was “inhibited”.

The record behind these values is PMC9241669, “Allantodapsone is a Pan-Inhibitor of Staphylococcus aureus Adhesion to Fibrinogen, Loricrin, and Cytokeratin 10” (Microbiology Spectrum, 2022).
